# Measured values published in paper PMC3460821, “SIRT1 Activators Suppress Inflammatory Responses through Promotion of p65 Deacetylation and Inhibition of NF-κB Activity” (PLoS ONE, 2012).
# Test system: SIRT1
# Assay: cells
# Design: species or system U2OS or HEK 293; AlphaScreen of acetylated K310-p65 in lysates of cells co-expressing p300 and HA-p65; reduction by SIRT1 activators
# Settings: reduction of cellular acetylated p65 (K310); read-out: Cellular p65 acetylation assay IC50
# Procedure: Acetylated p65 protein in cell lysates was measured by an AlphaScreen format based assay (Bosse et al., Principles of AlphaScreen. PerkinElmer Application Note (2001)). A sandwich comprised of a biotinylated anti-HA antibody (Roche, 12158167001) bound to streptavidin coated donor beads (PerkinElmer, 6760617M) and an anti-acetylated K310-p65 antibody (Abcam, ab19870) interacting with protein A coated acceptor beads was assembled to detect light emission upon acetylated HA-p65 protein binding to the donor and acceptor beads. A similar AlphaScreen assay to measure total HA-tagged p65 protein was also developed by replacing the anti-acetylated K310-p65 antibody with an anti-p65 antibody (Santa Cruz, sc-109). The level of acetylated p65 protein was normalized against the total HA-tagged p65 protein measured in parallel for the same sample. We developed a high throughput cellular assay to examine the ability of compounds to promote SIRT1-mediated deacetylation of p65 protein in cells. This assay system uses BacMam virus transduction in U2OS or HEK 293 cells to co-express p300 HAT and an HA-tagged p65 NF-κB subunit to enable detection of acetylated p65. […] Similarly, pharmacological inhibition of SIRT1 by a specific SIRT1 inhibitor, EX-527 [46], increased the levels of acetylated p65 protein (Figure 3D). […] STACs that were identified from biochemical assays (File S1) were evaluated in the acetylated p65 cellular assay. […] The compounds were tested for the inhibition of histone acetyltransferases (HATs) since this could result in a reduction of acetylated p65 that could not be distinguished from an enhancement of deacetylation.
row,IC50 [nM],SMILES
1,840,O=C(Nc1nccs1)c1cccc2[nH]c(-c3cccc(N4CCOCC4)c3)nc12 [SRTCX1002]
2,1420,O=C(Nc1nccs1)c1cccc2[nH]c(-c3ccccc3OCCN3CCOCC3)nc12 [SRTCX1003]
3,> 25000,O=C(Nc1nccs1)c1cccc2[nH]c(-c3ccc4c(c3)OC(F)(F)O4)nc12 [SRTCZ1001]
